Results from PubChem BioAssay AID1645861 (Buhrlage Lab, Dana-Farber Cancer Institute and Novartis …, 2021).
Calls of active or inactive are those of the source.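 The calls were made as follows: active = compounds whose peak USP7 inhibition across the dose series reached 30% or more; inactive = the rest.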

Molecular target: Ubiquitin carboxyl-terminal hydrolase 7 (Homo sapiens) (UniProt Q93009)
Assay: Biochemical concentration-response for ubiquitin-specific peptidase 7 DUB inhibitors, verifying primary hits (AID 1645861)
Details: purified USP7, Ub-rhodamine cleavage fluorescence, 60 min

Ubiquitin carboxyl-terminal hydrolase 7 (Homo sapiens), sequence (Q93009 whole entry, looked up): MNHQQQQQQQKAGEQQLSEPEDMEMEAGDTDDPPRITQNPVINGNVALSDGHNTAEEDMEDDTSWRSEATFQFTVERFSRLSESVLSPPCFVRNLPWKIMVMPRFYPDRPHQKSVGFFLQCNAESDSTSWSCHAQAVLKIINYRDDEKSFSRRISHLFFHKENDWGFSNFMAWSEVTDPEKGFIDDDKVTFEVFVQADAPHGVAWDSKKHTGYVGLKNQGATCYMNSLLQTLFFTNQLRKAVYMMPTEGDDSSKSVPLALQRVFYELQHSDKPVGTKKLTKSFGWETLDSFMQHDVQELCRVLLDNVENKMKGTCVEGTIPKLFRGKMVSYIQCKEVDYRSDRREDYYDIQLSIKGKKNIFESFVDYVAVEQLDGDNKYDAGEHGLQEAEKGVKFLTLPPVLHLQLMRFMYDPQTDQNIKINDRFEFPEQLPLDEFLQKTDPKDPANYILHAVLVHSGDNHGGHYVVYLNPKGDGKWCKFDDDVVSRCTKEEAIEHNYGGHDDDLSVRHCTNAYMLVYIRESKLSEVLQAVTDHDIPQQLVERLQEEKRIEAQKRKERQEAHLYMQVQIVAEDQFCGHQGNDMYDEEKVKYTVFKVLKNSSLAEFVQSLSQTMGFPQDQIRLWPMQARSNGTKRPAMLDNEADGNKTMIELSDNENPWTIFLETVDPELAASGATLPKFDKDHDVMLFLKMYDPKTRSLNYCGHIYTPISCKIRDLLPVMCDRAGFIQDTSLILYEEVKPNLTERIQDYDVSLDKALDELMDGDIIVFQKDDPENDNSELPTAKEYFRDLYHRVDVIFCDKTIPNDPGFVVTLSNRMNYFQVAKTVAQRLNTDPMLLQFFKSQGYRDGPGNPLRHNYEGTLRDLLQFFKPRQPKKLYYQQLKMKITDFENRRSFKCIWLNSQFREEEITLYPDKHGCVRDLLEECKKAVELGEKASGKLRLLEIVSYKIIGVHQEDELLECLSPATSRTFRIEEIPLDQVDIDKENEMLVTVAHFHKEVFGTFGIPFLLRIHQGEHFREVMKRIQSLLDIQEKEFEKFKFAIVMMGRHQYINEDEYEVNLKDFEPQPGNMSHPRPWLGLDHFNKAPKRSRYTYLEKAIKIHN

Structure (SMILES)	IC50
Cc1ccc(C(=O)c2cn(CC(=O)Nc3ccc4c(c3)OCO4)c3ccccc3c2=O)cc1	> 50 µM (inactive)
CC1=CC(=O)C(C2=C(O)C(=O)C(C)=CC2=O)=C(O)C1=O	> 50 µM (inactive)
Nc1c(C(=O)NCc2ccc3c(c2)OCO3)nnn1Cc1ccc(Br)cc1F	> 50 µM (inactive)
COc1cc2c(cc1OC)-c1cc(Nc3ccc(Br)cc3)nc(=O)n1CC2	> 50 µM (inactive)
O=C(OC1CSc2nc3ccccc3n2C1)c1ccc([N+](=O)[O-])o1 (configuration not stated)	> 50 µM (inactive)
COC(=O)c1c(OC)cc2c(c1C)Oc1c(Cl)c(O)c(Cl)c(C)c1C(=O)O2	> 50 µM (inactive)
CCOC(=O)c1ccc(NC(=O)Cn2c(=O)n(CC(=O)NCc3ccco3)c(=O)c3ccccc32)cc1	> 50 µM (inactive)
O=C(NCc1ccc(F)cc1)c1cccc(Nc2nc3ccccc3n3cnnc23)c1	> 50 µM (inactive)
Cc1ccc(NC(=O)Cn2c(=O)n(CC(=O)NCCc3ccccc3)c(=O)c3sccc32)cc1C	> 50 µM (inactive)
CCCCCCCCCCCCCCCc1cc(O)cc(O)c1C(=O)O	30.7 µM
C[C@@H]1CO[C@@H]2C3=C(C(=O)C=CC3=O)[C@H]3OC(=O)[C@@H]4CCC5[C@@H]1CCC52C34 (some centres not stated)	> 50 µM (inactive)
O=C(Cn1c(=O)c2sccc2n(CC(=O)OCc2ccccc2)c1=O)NCc1ccccc1Cl	> 50 µM (inactive)
COc1ccc(Cl)cc1NC(=O)COC(=O)c1cc2ccccc2oc1=O	> 50 µM (inactive)
CCOc1ccc2c(c1)c(=O)c(C(=O)c1ccccc1)cn2CC(=O)Nc1ccc(Cl)cc1	41.6 µM
CCn1cc2c(n1)c(=O)n(Cc1ccccc1)c(=O)n2CC(=O)Nc1ccc(OC)cc1	> 50 µM (inactive)
Cc1ccc(NC(=O)Nc2ccc(C)n(CC(=O)Nc3ccc(C)c(C)c3)c2=O)cc1	38.8 µM
O=C(NCCc1nc2ccccc2n1Cc1ccccc1F)c1ccc(Cl)cc1	> 50 µM (inactive)
Cn1c2ccccc2c(=O)c2c(=O)n(Cc3ccco3)c(-c3ccccc3F)nc21	> 50 µM (inactive)
CCOC(=O)C1CCN(C(=O)c2ccc3c(c2)NC(=O)C2CCCN32)CC1 (configuration not stated)	> 50 µM (inactive)
O=C(Nc1cccc(Br)c1)c1cc(-c2cccnc2)n[nH]1	48.7 µM
COc1ccc(OC)c(-c2cn3ccn(-c4ccc(F)c(Cl)c4)c(=O)c3n2)c1	> 50 µM (inactive)
O=C(/C=C/c1c(F)cccc1Cl)N1CCc2ccccc2C1	> 50 µM (inactive)

Structure (SMILES)	IC50
CCCCCC(=O)C(CCCC)c1oc(=O)c(CCCC)c(O)c1CCCC (configuration not stated)	> 50 µM (inactive)
Cc1ccc2c(c1)N(C)C(=O)c1cc(NC(=O)c3ccc(F)cc3)ccc1O2	> 50 µM (inactive)
CC1(C)Cc2c(c(-c3ccco3)nc3sc4c(SCCCc5ccccc5)ncnc4c23)CO1	> 50 µM (inactive)
O=C(CCn1c(=O)c2ccccc2n(CC(=O)OCc2ccccc2)c1=O)NCc1ccc2c(c1)OCO2	> 50 µM (inactive)
COc1cccc(CNC(=O)c2nnn(CC(=O)Nc3cc(C)ccc3C)c2N)c1	> 50 µM (inactive)
O=C(O)CCCCCN1C(=O)CC(c2ccc(Cl)cc2)CC1=O	> 50 µM (inactive)
Cc1ccc2c(c1)c(=O)c(C(=O)c1ccccc1)cn2CC(=O)Nc1ccccc1	> 50 µM (inactive)
COc1cc(Cl)c(NC(=O)C2Cc3ccccc3N2C(=O)c2ccccc2)c(OC)c1 (configuration not stated)	> 50 µM (inactive)
Nc1ccc2oc(-c3cccc(-c4nc5cc(N)ccc5o4)n3)nc2c1	> 50 µM (inactive)
COc1cc(OC)c(NC(=O)c2cc(-c3ccccn3)n[nH]2)cc1Cl	> 50 µM (inactive)
CSC1SCC2C(=O)N(C)C(C(C)C(C)C)C(=O)OCC(NC(=O)c3cnc4ccccc4n3)C(=O)NC(C)C(=O)N(C)C1C(=O)N(C)C(C(C)C(C)C)C(=O)OCC(NC(=O)c1cnc3ccccc3n1)C(=O)NC(C)C(=O)N2C (configuration not stated)	> 50 µM (inactive)
O=c1ccc(-c2cc3ccccc3o2)cn1Cc1ccccc1-c1ccccc1	31.4 µM
COc1ccc(/C=C/C(=O)Nc2cccc(S(=O)(=O)Nc3ccccc3Cl)c2)c(OC)c1	> 50 µM (inactive)
COc1cc(NC(=O)Cn2c(=O)n(-c3ccc(CC(=O)NCc4ccco4)cc3)c(=O)c3ccccc32)cc(OC)c1	> 50 µM (inactive)
COc1c(O)cc(CC(=O)O)c(C(C)=O)c1O	47.4 µM
Cc1nc(SCC(=O)NC(C)c2ccccc2)c2oc3ccccc3c2n1 (configuration not stated)	> 50 µM (inactive)
O=C(CCn1c(=O)c2ccccc2n(Cc2ccccc2F)c1=O)NCc1ccco1	> 50 µM (inactive)
CCOC(=O)C1CCN(Cc2cc(=O)oc3cc(O)c(O)cc23)CC1	6.18 µM
CC(C)c1ccc(NC(=O)c2cc(-c3cccnc3)n[nH]2)cc1	> 50 µM (inactive)
Cc1ccc(CNC(=O)CCCn2c(=O)c3sccc3n(CC(=O)Nc3cc(Cl)ccc3C)c2=O)cc1	> 50 µM (inactive)
O=C(O)C1C(C(=O)Nc2ccccc2)C2(c3ccccc3)C(=O)C1(c1ccccc1)C(c1ccccc1)=C2c1ccccc1 (configuration not stated)	15.8 µM
Cc1ccc(NC(=O)Cc2nnc3c(-c4nc(C5CC5)no4)cccn23)cc1	35.5 µM

Structure (SMILES)	IC50
COc1ccc(NC(=O)Cn2c(=O)n(CCC(=O)NCc3ccccc3)c(=O)c3sccc32)cc1Cl	> 50 µM (inactive)
Cc1cc(C(F)(F)F)n2nc(C3CCN(C(=O)c4cnn(C)c4C)C3)cc2n1 (configuration not stated)	> 50 µM (inactive)
Cc1cccc(-n2ccnc(SCC(=O)Nc3ccc(Cl)cc3F)c2=O)c1	> 50 µM (inactive)
Cc1noc(-c2cc(=O)n(CC(=O)Nc3ccccc3Cl)c3ccccc23)n1	> 50 µM (inactive)
O=C(CCCc1nnc2c(=O)n(-c3cccc(F)c3)ccn12)NCc1ccc(F)cc1	> 50 µM (inactive)
O=C(CSc1nnc2c3ccccc3nc(-c3ccco3)n12)N1CCCc2ccccc21	> 50 µM (inactive)
COc1ccc2cc(C(=O)N3CCC(C(C)C(=O)NCc4cccc(F)c4)CC3)[nH]c2c1 (configuration not stated)	> 50 µM (inactive)
COc1cccc2cc(C(=O)Nc3nc(-c4ccncc4)cs3)oc12	18.3 µM
CCOc1ccc(-n2c(=O)c3sccc3n(CC(=O)Nc3cccc(C)c3)c2=O)cc1	> 50 µM (inactive)
O=C(Cc1ccc(-n2c(=O)c3ccccc3n(CC(=O)Nc3ccc(Cl)cc3Cl)c2=O)cc1)NCc1ccco1	> 50 µM (inactive)
COc1ccc(NC(=O)Cn2c(=O)n(-c3ccc(CC(=O)NCc4ccco4)cc3)c(=O)c3ccccc32)cc1Cl	> 50 µM (inactive)
O=C(NCc1ccc2c(c1)OCO2)c1cc2c(s1)CCC2	> 50 µM (inactive)
O=C(CCc1ccc(S(=O)(=O)N2CCOCC2)cc1)OCC(=O)c1ccc(-c2ccccc2)cc1	> 50 µM (inactive)
CCOc1ccc(-n2c(SCC(=O)Nc3ccc(C)cc3)nnc2-c2c[nH]c3ccccc23)cc1	> 50 µM (inactive)
CCc1ccc(NC(=O)C(C)OC(=O)/C=C/c2ccc(S(=O)(=O)Nc3cccc(S(N)(=O)=O)c3)cc2)cc1 (configuration not stated)	> 50 µM (inactive)
Cc1ccc(Cn2cc(-c3noc(C(=O)Nc4cc(F)ccc4F)n3)nn2)cc1	> 50 µM (inactive)
CC(NC(=O)c1ccccc1)c1nc2ccccc2n1CC(=O)Nc1ccc(OC(F)(F)F)cc1 (configuration not stated)	> 50 µM (inactive)
Cn1c2ccccc2c2ncn(CCCN3CCOCC3)c(=O)c21	> 50 µM (inactive)
C[C@H](NC(=O)Cc1ccccc1F)c1nc2cc(-c3ccccc3F)ncn2n1	> 50 µM (inactive)
O=C(CCCc1nnc2c(=O)n(-c3cccc(F)c3)ccn12)NCc1ccc(Cl)cc1	> 50 µM (inactive)
COc1ccc(NC(=O)CC(=O)c2ccc([N+](=O)[O-])cc2)cc1S(=O)(=O)Nc1ccc(Cl)cc1	> 50 µM (inactive)
Cc1cccc(NC(=O)Nc2nnc(CC(=O)NCc3ccccc3)s2)c1	> 50 µM (inactive)

Structure (SMILES)	IC50
COc1cc(NC(=O)Cc2ccccc2)ccc1NC(=O)c1cc2ccccc2o1	> 50 µM (inactive)
CCOc1ccc2c(c1)c(=O)c(C(=O)c1ccc(C)cc1)cn2CC(=O)Nc1ccc(C)cc1	> 50 µM (inactive)
Cc1ccc2[nH]c3c(=O)n(Cc4ccc(N(C)C)cc4)cnc3c2c1	> 50 µM (inactive)
CCCn1cc(C(=O)N2CCC3(CC2)CC2(CO3)Nc3ccccc3-n3cccc32)c(C)n1 (configuration not stated)	> 50 µM (inactive)
COc1cccc(NC(=O)Cn2c3ccccc3n3c(=O)cc(-c4ccccc4)nc23)c1	> 50 µM (inactive)
Cn1cc(NC(=O)Nc2cccc(C(F)(F)F)c2)c2ccccc2c1=O	> 50 µM (inactive)
COc1ccc(-c2c(NC(=O)C3COc4ccccc4O3)n[nH]c2C)cc1OC (configuration not stated)	> 50 µM (inactive)
O=C(CSc1nnc2n(-c3ccccc3)c(=O)c3ccccc3n12)c1ccc(F)cc1	> 50 µM (inactive)
COc1ccc(-c2cc(-c3ccc(F)cc3)[nH]c(=O)c2C#N)cc1	> 50 µM (inactive)
CCOc1ccc(-c2nnc(-c3cnc4onc(C5CCCC5)c4c3)o2)cc1	> 50 µM (inactive)
CC(=O)NS(=O)(=O)c1ccc(NC(=O)/C=C/c2cn(-c3ccccc3)nc2-c2ccccc2)cc1	36.4 µM
COc1ccc(-c2cc(-c3ccccc3)nc(SCC(N)=O)c2C#N)cc1OC	> 50 µM (inactive)
COC(=O)c1ccc2c(=O)n(CCCCCC(=O)NCCc3ccc(S(N)(=O)=O)cc3)c(=O)[nH]c2c1	> 50 µM (inactive)
CCCCCC1OC(=O)c2c(C)cccc2Oc2ccc(O)c(C=O)c2/C=C/C1O (configuration not stated)	> 50 µM (inactive)
COc1cc2c(=O)n(CCC(=O)NC3CCCC3)c(=O)n(CC(=O)Nc3cccc(Cl)c3)c2cc1OC	> 50 µM (inactive)
Cn1nc(Cl)c(Cl)c1Oc1ccc(S(=O)(=O)Nc2ccc(Oc3ccc(C(F)(F)F)cn3)c(Cl)c2)cc1	46.4 µM
CC1OC2CC(O)C1(O)C1=C2C(O)=C(C(N)=O)C(=N)C1=O (configuration not stated)	> 50 µM (inactive)
CC(NC(=O)c1nc2n(n1)-c1ccccc1S(=O)(=O)N2)c1cc2ccccc2o1 (configuration not stated)	> 50 µM (inactive)
Cc1cc(O)c2c3c(c(O)cc2c1)C(=O)c1c(O)cccc1C3=O	19.5 µM
COC(=O)c1ccccc1NC(=O)Cn1c(=O)n(CCCC(=O)NCc2ccco2)c(=O)c2ccccc21	> 50 µM (inactive)
COC(=O)c1ccccc1NC(=O)Cn1c(=O)n(Cc2ccc(C(=O)NCc3ccco3)cc2)c(=O)c2ccccc21	> 50 µM (inactive)
